The values below come from patent US20010019832A1, “Methods for identification using U0126” (priority 2000, published 2001).

The subject of assay [1] is L6 cells. The experiment in a line: Glucose uptake rate in L6 cells. Format: cell-based, rat. Particulars: 5 mM glucose; for Glucose uptake rate: U0126 10 μM or PD98059 10 μM for 20 h, insulin 176 nM 1 h before. Here is the method: (§1) Glucose uptake was determined as described by Hundal et al. (1994) Biochem. J. 297: 289-295. Briefly, after incubation with insulin for one hour, cell monolayers were rinsed with glucose-free PBS. Glucose uptake was quantified by incubating the cells in the presence of 1 μCi/ml ^3H-2-deoxy-glucose in PBS for 8 min. Uptake of 2-deoxy-glucose was terminated by rapidly aspirating the medium, followed by two successive washes of cell monolayers with ice cold PBS. The cells were lysed in 0.5 M NaOH, followed by liquid scintillation counting. Rates of transport were normalized for protein content in each well.
Glucose uptake rate in L6 cells, in the presence of 5 mM glucose, was determined. The cells were incubated in serum-free medium supplemented with U0126 (10 μM), PD98059 (10 μM) or wortmannin (100 nM) for 20 h. Insulin (176 nM) was added 1 h before the determination of glucose uptake rate. Glucose uptake was determined as described above.

Assay [2] relates to human skeletal muscle cells (hSkMC). The experiment in a line: Glucose uptake rate in human skeletal muscle cells. The format is cell-based. The conditions noted are these: 5 mM glucose, insulin 176 nM or U0126 10 μM added 30 min before. The protocol:
as §1
Glucose uptake rate in human skeletal muscle cells (hSkMC), in the presence of 5 mM glucose, was determined. The cells were incubated in serum-free medium (PromoCell) for 2 h. Insulin (176 nM) or U0126 (10 μM) were added 30 min before determination of glucose uptake rate.

A further assay deals with PKB. Put plainly: PKB activity in L6 cells. The conditions noted are these: differentiated L6 cells, incubated 10 min. Format: cell-based, rat.
Assay [3] relates to L6 cells. The experiment in a line: Palmitate oxidation in L6 cells (14CO2 trapping). Format: cell-based, rat. Particulars: for Palmitate oxidation in the presence of 5 mM glucose: data not shown. From the text: (§2) The principle of the used glucose/free fatty acid, (FFA) oxidation assay is based on the fact that one of the final products along metabolic pathways of these two substrates is carbon dioxide. Since the substrates are uniformly ^14C labeled, the radioactivity in carbon dioxide trap is a direct measure of metabolic activity in studied cells (Rodbell, M. (1964) J. Biol. Chem. 239: 375-380).
(§3) As further described in International Patent Application No. PCT/SE00/02680, filed Dec. 27, 2000, cells were cultivated until sub-confluence in T-25 Costar flasks. Prior to the experiment, the cells were deprived of serum for 6 hours in DMEM medium containing 5 mM glucose. 3 ml of medium supplemented with (U-^14C)-glucose or (U^14C)-palmitic acid (0.2 μCi/ml) were added to each flask. A filter paper (1.5×5.5 cm) soaked in hyamine solution was rolled up, blotted on a paper towel to remove excess of fluid, and placed carefully into the tube of the device described in International Patent Application No. PCT/SE00/02680. The tube was mounted in the flasks, the screw caps were tightened and cells were incubated at 37° C. for a suitable time period. The reaction was terminated by adding sulfuric acid to the culture medium and the cells were incubated for additional 60 min. The filter paper was removed, cut into small pieces and transferred to scintillation vials. Methanol (0.2 ml) was added to each vial to increase the solubility of hyamine-CO2 in the scintillation fluid. Finally the radioactivity was measured. The remaining cells were washed briefly with ice cold PBS, solubilized with 1 M KOH and the protein content was determined by the Bradford method (Bradford, M. M. (1976) Anal. Biochem. 72: 248-254).
In a cell system, insulin resistance can be provoked experimentally by raising the concentrations of glucose, fat or both in the medium, or by treating the cells with the cytokine Tumor Necrosis Factor alpha (TNF alpha) before insulin stimulation. […] Palmitate oxidation was determined as described in “Experimental methods”. […]

The test system of assay [4] is L6 cells. Put plainly: Glucose oxidation in L6 cells (14CO2 trapping). Format: cell-based, rat. Particulars: 5 mM glucose; for Glucose oxidation: insulin 176 nM or U0126 10 μM added 1 h before.
From the text: as §2, §3
Glucose oxidation in L6 cells in the presence of 5 mM glucose was determined as described in “Experimental Methods”. One hour prior to determination of glucose oxidation, insulin or U0126 was added to a concentration of 176 nM or 10 μM, respectively.

Another assay concerns SH-SY5Y cells. The experiment in a line: Glucose uptake rate in SH-SY5Y cells. The format is cell-based, human. Particulars: 5 mM glucose, U0126 10 μM or insulin 176 nM added 1 h before. Here is the method: as §1
Glucose uptake rate in SH-SY5Y cells in the presence of 5 mM glucose was determined. The cells were incubated in serum-free medium over night. Approximately 20 h later U0126 (10 μM), wortmannin (100 nM) or insulin (176 nM) were added, 1 h before the determination of glucose uptake rate.

The subject of a further assay is AP-1. Particulars: Duncia et al. 1998; cited from earlier work.
The test system of a further assay is INS-1 cells. Particulars: U0126 10 μM, 24 hours. Here is the method: Insulin secretion in INS-1 cells was determined. INS-1 cells were seeded in 24-well plates. Thirty minutes before assay the glucose concentration was decreased to 2.8 mM. After the incubation in low glucose medium, glucose (up to 16 mM) or U0126 (10 μM) were added. After 24 hours, samples were collected and analyzed in the rat insulin ELISA.

The test system of the next assay is MEK½. The conditions noted are these: Favata et al. 1998; cited from earlier work.

Regarding “insulin: Bovine insulin purchased from Gibco Laboratories”, the Glucose uptake rate result in the assay with L6 cells [1] is recorded as “increased glucose uptake”; in assay [2], “increase glucose uptake”; with SH-SY5Y cells it was “increased glucose uptake”. For the same molecule, the PKB activity result with PKB is reported as “increased PKB activity three-fold”. For the same molecule, the “Palmitate oxidation in the presence of 5 mM glucose” value with L6 cells [3] is recorded as “decreased palmitate oxidation”. Besides, the Glucose oxidation entry in the assay with L6 cells [4] was “increased glucose oxidation”.
On to `N#CC(=C(N)Sc1ccccc1N)C(C#N)=C(N)Sc1ccccc1N` [U0126, 1,4-diamino-2,3-dicyano-1,4-bis [2-aminophenylthio] butadiene], for which, in the assay with AP-1, the “Inhibition of AP-1 transactivation” value is on record as “inhibitor of AP-1 transactivation”. Besides, in the assay on L6 cells [1] (U0126 10 μM 20 h plus insulin 176 nM 1 h), the “Glucose uptake rate, U0126 and insulin incubated together” value was “no further increase compared to U0126 alone”. Besides, the figures for the Glucose uptake rate result (in the assay on L6 cells [1]; in assay [2]; in the assay on SH-SY5Y cells) were “increased glucose uptake”, “increase glucose uptake” and “increased glucose uptake”, respectively. Moreover, the PKB activity result in the assay with PKB was “no effect”. Besides, the Insulin secretion result with INS-1 cells is given as “increased insulin secretion”. Further, the “Palmitate oxidation in the presence of 5 mM glucose” value in the assay with L6 cells [3] was “decreased palmitate oxidation”. Further, in the assay with L6 cells [3] (12 mM glucose and 480 μM palmitate for 20 hours, U0126 10 μM 1 h before), the “Palmitate oxidation during insulin resistant conditions” value is recorded as “decreased palmitate oxidation”. The “Glucose oxidation, U0126 and insulin incubated together” value in the assay with L6 cells [4] (U0126 10 μM plus insulin 176 nM) is reported as “A small increase”. The Glucose oxidation entry with L6 cells [4] was “increased glucose oxidation”. The “Inhibition of MEK½” value with MEK½ is “specifically inhibits MEK½ in both the inactive and active forms”.
